From US11780841B2, “3,6-methano-1H-pyrrolo[3,2-b]pyridine and 3,6-methano-1H-pyrrolo[3,2-c]pyridine compounds and medicaments using same” (priority 2018, dated 2023) come the findings set out here.

Bounds are passed on as bounds.

For this assay, the system named is recombinant rabies virus 1088 strain expressing Gaussia Luciferase (GLuc) (1088/GLuc). The assay is classed as cell-based. The note with it: read-out: Anti-rabies activity.
Consider `CC(C)CC[C@@H]1[C@H]2CN[C@@]3(C(=O)NC(C)C)[C@@H](C2)CN(Cc2ccc(O)cc2)[C@@H]13` [IB-501], for which the IC50 was < 5 µM.
`CC(C)NC(=O)[C@]12NC[C@H]3C[C@H]1CN(Cc1ccc(O)cc1)[C@H]2[C@@H]3Cc1cccc2ccccc12` [IB-502]: the IC50 is < 5 µM.
The figure for `CC(C)CCN1C[C@@H]2C[C@@H]3CN[C@]2(C(=O)NCc2ccccc2)[C@@H]1[C@@H]3CCC(=O)O` [IB-505] is 10 to 30 µM; for `CC(C)CNC(=O)C12NCC3CC1CN(CCc1ccccc1)C2C3CCC(=O)O` (stereo not drawn) [IB-508] it is 10 to 30 µM.
The figure for `CC(C)CNC(=O)C12NCC3CC1CN(CC1CCCCC1)C2C3CCC(=O)O` (stereo not drawn) [IB-510] is 10 to 30 µM.
In the case of `O=C(O)CCN1CC2CC3CNC2(C(=O)NCc2ccc(O)cc2)C1C3CCc1ccccc1` (stereo not drawn) [IB-515] it was 10 to 30 µM; in that of `O=C(O)CCN1CC2CC3CNC2(C(=O)NCc2ccc(O)cc2)C1C3Cc1cccc2ccccc12` (stereo not drawn) [IB-516], 10 to 30 µM; in that of `CC(C)CC1C2CNC3(C(=O)NCCC(N)=O)C(C2)CN(Cc2cccc4ccccc24)C13` (stereo not drawn) [IB-520], < 5 µM.
Turning to `NC(=O)CCNC(=O)C12NCC3CC1CN(Cc1cccc4ccccc14)C2C3Cc1ccc(O)cc1` (stereo not drawn) [IB-521], the IC50 is 10 to 30 µM.
As to `NC(=O)CCNC(=O)C12NCC3CC1CN(CC1CCCCC1)C2C3Cc1cccc2ccccc12` (stereo not drawn) [IB-522], the IC50 lay in the range of 10 to 30 µM.
The figure for `NC(=O)CCNC(=O)C12NCC3CC1CN(Cc1ccc(F)cc1)C2C3Cc1cccc2ccccc12` (stereo not drawn) [IB-525] is 10 to 30 µM; for `CC(C)CCC1C2CNC3(C(=O)NCCc4ccccc4)C(C2)CN(CCO)C13` (stereo not drawn) [IB-531] it is 10 to 30 µM; for `NC(=O)CCNC(=O)C12NCC3CC1CN(Cc1ccccc1)C2C3CCc1ccccc1` (stereo not drawn) [IB-535] it is 10 to 30 µM.
For `CC(C)CN1CC2CC3CNC2(C(=O)NCCc2ccccc2)C1C3Cc1ccc(O)cc1` (stereo not drawn) [IB-536], the IC50 is 10 to 30 µM.
The figure for `CC(C)CN1CC2CC3CNC2(C(=O)NCCC(N)=O)C1C3CCc1ccccc1` (stereo not drawn) [IB-539] is 10 to 30 µM.
The figure for `CC(C)CC1C2CNC3(C(=O)NCCc4ccccc4)C(C2)CN(Cc2ccc(O)cc2)C13` (stereo not drawn) [IB-540] is 10 to 30 µM.
The figure for `CC(C)CC1C2CNC3(C(=O)NCc4cccc5ccccc45)C(C2)CN(Cc2ccc(O)cc2)C13` (stereo not drawn) [IB-541] is < 5 µM.
On to `CC(C)CCC1C2CNC3(C(=O)NCCc4ccccc4)C(C2)CN(Cc2ccc(O)cc2)C13` (stereo not drawn) [IB-544], for which the IC50 lay in the range of 10 to 30 µM.
For the compound `O=C(NCc1ccc(F)cc1)C12NCC3CC1CN(CCO)C2C3Cc1ccc(O)cc1` (stereo not drawn) [IB-549], the IC50 was 10 to 30 µM.
In the case of `CCCCCCNC(=O)C12NCC3CC1CN(CCC(C)C)C2C3CC(C)C` (stereo not drawn) [IB-551] it was < 5 µM; in that of `CC(C)CCN1CC2CC3CNC2(C(=O)NCc2ccc(F)cc2)C1C3CC(C)C` (stereo not drawn) [IB-553], < 5 µM; in that of `CCCCCCNC(=O)C12NCC3CC1CN(Cc1ccccc1)C2C3Cc1ccccc1` (stereo not drawn) [IB-562], 10 to 30 µM.
Turning to `O=C(NCc1ccc(F)cc1)C12NCC3CC1CN(Cc1ccccc1)C2C3CCc1ccccc1` (stereo not drawn) [IB-568], the IC50 is 10 to 30 µM.
As for `CC(C)CCNC(=O)C12NCC3CC1CN(Cc1ccc(O)cc1)C2C3Cc1ccccc1` (stereo not drawn) [IB-574], the IC50 was 10 to 30 µM.
For `CC(C)CNC(=O)C12NCC3CC1CN(CCC(=O)O)C2C3Cc1cccc2ccccc12` (stereo not drawn) [IB-575], the IC50 was in the range of 10 to 30 µM.
As for `CC(C)CCN1CC2CC3CNC2(C(=O)NCc2ccc(O)cc2)C1C3CCc1ccccc1` (stereo not drawn) [IB-576], the IC50 fell in the range of 10 to 30 µM.
In the case of `CC(C)CCN1CC2CC3CNC2(C(=O)NCc2ccc(O)cc2)C1C3Cc1ccccc1` (stereo not drawn) [IB-577] it was 10 to 30 µM; in that of `CC(C)CC1C2CNC3(C(=O)NCc4ccc(O)cc4)C(C2)CN(CC2CCCCC2)C13` (stereo not drawn) [IB-581], 10 to 30 µM; in that of `CC(C)CCC1C2CNC3(C(=O)NCc4ccc(O)cc4)C(C2)CN(Cc2ccc(F)cc2)C13` (stereo not drawn) [IB-582], 10 to 30 µM.
The figure for `O=C(NCc1ccc(O)cc1)C12NCC3CC1CN(Cc1ccc(F)cc1)C2C3Cc1ccccc1` (stereo not drawn) [IB-583] is 10 to 30 µM; for `CC(C)CC1C2CNC3(C(=O)NCc4cccc5ccccc45)C(C2)CN(CCO)C13` (stereo not drawn) [IB-585] it is 10 to 30 µM; for `O=C(NCCO)C12NCC3CC1CN(Cc1cccc4ccccc14)C2C3Cc1ccccc1` (stereo not drawn) [IB-588] it is < 5 µM.
The figure for `O=C(NCCO)[C@]12NC[C@H]3C[C@H]1CN(CCc1ccccc1)[C@H]2[C@@H]3Cc1cccc2ccccc12` [IB-593] is 10 to 30 µM; for `O=C(NCCO)[C@]12NC[C@H]3C[C@H]1CN(Cc1ccccc1)[C@H]2[C@@H]3Cc1cccc2ccccc12` [IB-602] it is 10 to 30 µM.
As to `O=C(O)CCNC(=O)[C@]12NC[C@H]3C[C@H]1CN(CCO)[C@H]2[C@@H]3Cc1cccc2ccccc12` [IB-610], the IC50 is 10 to 30 µM.
The figure for `CC(C)CCN1C[C@@H]2C[C@@H]3CN[C@]2(C(=O)NCCC(=O)O)[C@@H]1[C@@H]3CC(C)C` [IB-611] is 10 to 30 µM; for `CC(C)CC[C@@H]1[C@H]2CN[C@@]3(C(=O)NCCC(=O)O)[C@@H](C2)CN(CC2CCCCC2)[C@@H]13` [IB-613] it is 10 to 30 µM; for `O=C(O)CCNC(=O)[C@]12NC[C@H]3C[C@H]1CN(CC1CCCCC1)[C@H]2[C@@H]3Cc1cccc2ccccc12` [IB-614] it is 10 to 30 µM.
In the case of `O=C(O)CCNC(=O)[C@]12NC[C@H]3C[C@H]1CN(Cc1ccccc1)[C@H]2[C@@H]3Cc1cccc2ccccc12` [IB-616] it was 10 to 30 µM; in that of `O=C(NCc1ccccc1)[C@]12NC[C@H]3C[C@H]1CN(CCO)[C@H]2[C@@H]3CCc1ccccc1` [IB-618], < 5 µM.
As for `O=C(NCc1ccccc1)[C@]12NC[C@H]3C[C@H]1CN(CCO)[C@H]2[C@@H]3Cc1ccccc1` [IB-619], the IC50 fell in the range of 10 to 30 µM.
In the case of `CC(C)CNC(=O)[C@]12NC[C@H]3C[C@H]1CN(CCO)[C@H]2[C@@H]3Cc1cccc2ccccc12` [IB-621] it was < 5 µM; in that of `CC(C)CNC(=O)[C@]12NC[C@H]3C[C@H]1CN(CCc1ccccc1)[C@H]2[C@@H]3Cc1ccc(O)cc1` [IB-625], 10 to 30 µM; in that of `CC(C)CNC(=O)[C@]12NC[C@H]3C[C@H]1CN(Cc1ccc(F)cc1)[C@H]2[C@@H]3CC(C)C` [IB-630], < 5 µM.
The figure for `CC(C)CNC(=O)[C@]12NC[C@H]3C[C@H]1CN(Cc1ccc(F)cc1)[C@H]2[C@@H]3Cc1ccc(O)cc1` [IB-631] is 10 to 30 µM; for `CC(C)CNC(=O)[C@]12NC[C@H]3C[C@H]1CN(CC(C)C)[C@H]2[C@@H]3CCc1ccccc1` [IB-633] it is < 5 µM.
`CC(C)CCN1C[C@@H]2C[C@@H]3CN[C@]2(C(=O)NCCC(N)=O)[C@@H]1[C@@H]3CCc1ccccc1` [IB-636]: the IC50 lay within 10 to 30 µM.
The figure for `NC(=O)CCNC(=O)[C@]12NC[C@H]3C[C@H]1CN(CC1CCCCC1)[C@H]2[C@@H]3Cc1ccccc1` [IB-637] is < 5 µM.
The figure for `O=C(NCCO)[C@]12NC[C@H]3C[C@H]1CN(CCc1ccccc1)[C@H]2[C@@H]3Cc1ccccc1` [IB-640] is < 5 µM; for `CC(C)C[C@@H]1[C@H]2CN[C@@]3(C(=O)NCCO)[C@@H](C2)CN(CCc2ccccc2)[C@@H]13` [IB-641] it is 10 to 30 µM.
In the case of `O=C(NCc1ccc(F)cc1)[C@]12NC[C@H]3C[C@H]1CN(CCc1ccccc1)[C@H]2[C@@H]3Cc1ccc(O)cc1` [IB-642] it was < 5 µM.
